Series [1] relates to 22RV1 cells. In words: Experiment 1 on inhibiting 22RV1 cell proliferation (5 days, CellTiter-Glo). It counts as cell-based. The conditions noted are these: 1% css-FBS phenol red-free medium, incubated with compound 5 days, read-out: IC50 values on proliferation inhibition of 22RV1 cells. The protocol: Prostate cancer cells 22RV1 were purchased from ATCC, the cell medium was RPMI 1640+10% FBS, and the cells were cultured in an incubator at 37° C. under 5% CO2. On day 1, the cells in an exponential phase were collected. With a 1% css-FBS phenol red-free medium, the cell suspension was adjusted to a corresponding concentration, plated at 2000 cells/well and incubated overnight. On day 2, compounds at different concentrations were added, and the plate was placed in the incubator and incubated for further 5 days. After the incubation was completed, according to operation instructions for a CellTiter-Glo kit (Promega, G7573), 50 μL of CTG solution, which was already pre-melted and equilibrated to room temperature, was added to each well, and the mixtures were uniformly mixed for 2 min using a microplate shaker. The plate was placed at room temperature for 10 min, and then fluorescence signal values were measured using a microplate reader (PHERAstar FSX). The results were processed according to formula (1), the survival rate of the compound at different concentrations was calculated, and the IC50 value of the compound with a survival rate of 50% was calculated using origin9.2 software with DoseResp function, wherein RLUcompound was the readout of the treated group, and RLUcontrol was the average value of the DMSO vehicle control group.
For orientation: ATP-based viability assays read luminescence as a measure of living cells.

The test system of the next series is full-length AR (AR-FL). In words: Degradation experiment on full-length AR (AR-FL) in 22RV1 cells. It counts as cell-based. The conditions noted are these: 24 h; for AR-FL Dmax % (maximum degradation rate): relative to vehicle control. The protocol: (§1) Prostate cancer cells 22RV1 were purchased from ATCC, the cell medium was 1640+10% FBS, and the cells were cultured in an incubator at 37° C. under 5% CO2. On day 1, the cells in an exponential phase were collected. With a 1% css-FBS phenol red-free medium, the cell suspension was adjusted to a corresponding concentration and plated into a 6-well plate at 1 mL/well and 100000 cells/well. The next day, a 1% css-FBS phenol-free medium containing the compound to be tested was added, a 1% css-FBS phenol-free medium containing 0.2% DMSO was added to one well as DMSO vehicle control, and the 6-well plate was cultured in an incubator at 37° C. under 5% CO2. After 24 h, the cells were digested with pancreatin and collected into a 1.5 mL centrifuge tube. 15 μL of RIPA lysate (containing 1×protease inhibitor cocktail) was added to each well, and the cells were lysed on ice for 15 min and then centrifuged at 12000 g and 4° C. for 10 min. The supernatant protein samples were collected, and protein quantification was performed by a BCA method. AR-FL and AR-Vs were detected using fully automatic protein expression quantitative analysis, which involved diluting the protein to be tested to 1 mg/mL. 4 μL of the diluted protein samples were added to 1 μL of 5×Master Mix (provided in the kit), and the prepared samples were denatured at 95° C. for 5 min and placed on ice for use. The primary antibodies, AR (CST, 5153S) and β-actin (CST, 3700), were diluted with Antibody Diluent II (provided in the kit) at a dilution ratio of 1:20 and 1:200, respectively. The secondary antibody was a mixed goat anti-mouse and goat anti-rabbit secondary antibody in a ratio of 1:1, and the color development solution was a mixed solution of Lumino-S and Peroxide in a ratio of 1:1. The prepared reagents were successively added to an assay plate according to instructions of the kit and detected on an instrument. Western blot band processing was performed using “Compass for SW”, a fully automatic protein expression quantitative analysis software, in which western blot bands were automatically simulated based on signal values. The degradation rate of AR-FL (3) or AR-Vs (4) relative to vehicle control at different compound concentrations was calculated according to formulas (3) and (4), wherein AR-FLcompound was the relative peak area of AR-FL in the treated group, and AR-FLsolvent was the relative peak area of AR-FL in the vehicle control group; AR-Vscompound was the relative peak area of AR-Vs in the treated group, and AR-Vssolvent was the relative peak area of AR-Vs in the vehicle control group.
(§2) DC50 calculation: the compound concentration DC50 values at which the degradation rate of AR-FL or AR-Vs was 50% were calculated using OriginPro2015 software and analyzed using DoseResp function according to formula (3) or (4).

The test system of series [2] is 22RV1 cells. Briefly: Experiment 2 on inhibiting 22RV1 cell proliferation (7 days, CellTiter-Glo). In kind it is cell-based. The note with it: Homo sapiens, 22Rv1, 168 h, 1% css-FBS phenol red-free medium, incubated with compound 7 days, read-out: IC50 values on proliferation inhibition of 22RV1 cells. Put shortly:
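22RV1 cells plated at 2000/well in phenol red-free medium with 1% css-FBS and treated next day with compound for 7 days at 37 °C. Viability read by CellTiter-Glo luminescence relative to DMSO vehicle; IC50 from dose-response fit.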

Series [3] deals with AR splice variants (AR-Vs). In words: Degradation experiment on AR splice variants (AR-Vs) in 22RV1 cells. It counts as cell-based. The conditions noted are these: 24 h; for AR-Vs Dmax % (maximum degradation rate): relative to vehicle control. The protocol:
as §1, §2

Series [4] in a line: Pharmacokinetic test in rats. It counts as in vivo. The conditions noted are these: rat, po; male SD rats, single dose i.g. 5 mg/kg, plasma, 0-24 h. The protocol:
Test objective: in this test, a single dose of test compounds was administered to SD rats intragastrically, and the concentrations of the test compounds in plasma of the rats were measured to evaluate pharmacokinetic characteristics of the test compounds in the rats.
Test animals: male SD rats, 200-250 g, 6-8 weeks old, 3 rats/compound, purchased from Chengdu Dossy Experimental Animals Co., Ltd.
Test method: on the day of the test, 3 SD rats were randomly grouped according to their body weights. The animals were fasted with water available for 12 to 14 hours one day before the administration of a test compound, and were fed 4 hours after the administration.
Sampling: before and after the administration, 0.1 mL of blood was taken from the orbits of the rats under isoflurane anesthesia, and placed in an EDTAK2 centrifuge tube. Centrifugation was carried out at 5000 rpm at 4C for […], and the plasma was collected.
Time points for plasma collection in G1 group: 0, 5 min, 15 min, 30 min, 1 h, 2 h, 4 h, 6 h, 8 h, and 24 h.
Before analysis and detection, all samples were stored at −80° C. The samples were analyzed quantitatively by LC-MS/MS.

The nature of series [5]: Pharmacokinetic test in beagle dogs. In kind it is in vivo. The note with it: dog, plasma, oral; male beagle dogs, i.v. 1 mg/kg and i.g. 10 mg/kg, single dose. The protocol: Test objective: a single dose of test compounds was administered to beagle dogs intravenously and intragastrically, and the concentrations of the test compounds in plasma of the beagle dogs were measured to evaluate pharmacokinetic characteristics of the test compounds in the beagle dogs.
Test animals: male beagle dogs, about 8-11 kg, 6 beagle dogs/compound, purchased from Beijing Marshall Biotechnology Co., Ltd.
Test method: on the day of the test, 6 beagle dogs were randomly grouped according to their body weights. The animals were fasted with water available for 12 to 14 hours one day before the administration of a test compound, and were fed 4 hours after the administration. The administration was performed according to Table 10.
Sampling: before and after the administration, 1 ml of blood was taken from the limb veins, and placed in an EDTAK2 centrifuge tube. Centrifugation was carried out at 5000 rpm at 4° C. for 10 min, and the plasma was collected.
Time points for blood collection: 0 min, 5 min, 15 min, 30 min, 1 h, 2 h, 4 h, 6 h, 8 h, 10 h, 12 h and 24 h. Before analysis and detection, all samples were stored at −80° C. The samples were analyzed quantitatively by LC-MS/MS.

Setting [6] is: degradation rate 50% relative to vehicle control.

Counter-ions that a name gives are not always drawn.

Regarding `O=C1CCC(N2C(=O)c3ccc(N4CCN(CC5CCN(S(=O)(=O)Nc6ccc(Cl)cc6C(=O)Nc6ccc(C(F)(F)F)cc6Cl)CC5)CC4)cc3C2=O)C(=O)N1` (stereo not drawn) [Compound 1, 5-chloro-N-(2-chloro-4-(trifluoromethyl)phenyl)-2-{[(4-[(4-(2-(2,6-dioxopiperidin-3-yl)-1,3-dioxo-2,3-dihydro-1H-isoindol-5-yl)piperazin-1-yl)methyl]piperidin-1-yl)sulfonyl]amino}benzamide], the IC50 with 22RV1 cells [1] is 0.835 µM; with 22RV1 cells [1] (Homo sapiens, 22Rv1, 120 h) it was 0.5 to 1.5 µM.
For the compound `O=C1CCC(N2C(=O)c3ccc(N4CC(N5CCN(S(=O)(=O)Nc6ccc(Cl)cc6-c6nc7cc(C(F)(F)F)cc(Cl)c7[nH]6)CC5)C4)cc3C2=O)C(=O)N1` (stereo not drawn) [Compound 2, N-(4-chloro-2-(7-chloro-5-(trifluoromethyl)-1H-1,3-benzodiazol-2-yl)phenyl)-4-(1-(2-(2,6-dioxopiperidin-3-yl)-1,3-dioxo-2,3-dihydro-1H-isoindol-5-yl)azetidin-3-yl)piperazine-1-sulfonamide], the IC50 in the series on 22RV1 cells [1] is 0.594 µM; in the series on 22RV1 cells [1] (Homo sapiens, 22Rv1, 120 h), 0.5 to 1.5 µM.
Consider `O=C1CCC(N2C(=O)c3ccc(N4CCC(CN5CCN(S(=O)(=O)Nc6ccc(Cl)cc6C(=O)Nc6ccc(C(F)(F)F)cc6Cl)CC5)CC4)cc3C2=O)C(=O)N1` (stereo not drawn) [Compound 3, 5-chloro-N-(2-chloro-4-(trifluoromethyl)phenyl)-2-((4-((1-(2-(2,6-dioxopiperidin-3-yl)-1,3-dioxoisoindolin-5-yl)piperidin-4-yl)methyl)piperazine)-1-sulfonamido)benzamide], for which the IC50 in the series on 22RV1 cells [1] is 1.24 µM.
On to `Cn1c(=O)n(C2CCC(=O)NC2=O)c2ccc(N3CCC(C4CCN(CC5CCN(c6nccc(COc7ccc(C(C)(C)c8cc(Cl)cc(C#N)c8)cc7)n6)CC5)CC4)CC3)cc21` (stereo not drawn) [Compound 88 trifluoroacetate, 3-chloro-5-(2-(4-((2-(4-((1′-(1-(2,6-dioxopiperidin-3-yl)-3-methyl-2-oxo-2,3-dihydro-1H-benzo[d]imidazol-5-yl)-[4,4′-bipiperidin]-1-yl)methyl)piperidin-1-yl)pyrimidin-4-yl)methoxy)phenyl)propan-2-yl)benzonitrile], for which the “AR-FL Dmax % (maximum degradation rate)” value in the series on full-length AR (AR-FL) was 64%. Also, in the series on 22RV1 cells [2], the IC50 worked out at 0.899 µM. Moreover, in series [3], the “AR-Vs Dmax % (maximum degradation rate)” value came to 73%. Further, in series [4], the exposure AUC(0-t) is 740 ± 362 ng·h/mL.
Turning to `CCOc1c(Cl)cc(C(C)(C)c2ccc(OCc3ccnc(N4CCC(CN5CCC(C6CCN(c7ccc8c(c7)n(C)c(=O)n8C7CCC(=O)NC7=O)CC6)CC5)CC4)n3)cc2)cc1C#N` (stereo not drawn) [Compound 94 trifluoroacetate, 3-chloro-5-(2-(4-((2-(4-((1′-(1-(2,6-dioxopiperidin-3-yl)-3-methyl-2-oxo-2,3-dihydro-1H-benzo[d]imidazol-5-yl)-[4,4′-bipiperidin]-1-yl)methyl)piperidin-1-yl)pyrimidin-4-yl)methoxy)phenyl)propan-2-yl)-2-ethoxybenzonitrile], in the series with full-length AR (AR-FL), the “AR-FL Dmax % (maximum degradation rate)” value was 84%. Besides, in the series on 22RV1 cells [2], the IC50 was determined as 0.678 µM. In addition, in series [3], the “AR-Vs Dmax % (maximum degradation rate)” value is given as 83%. For the same compound, the AUC(0-t) in series [4] worked out at 1700 ± 335 ng·h/mL.
On to `COc1c(Cl)cc(C(C)(C)c2ccc(OCc3ccnc(N4CCC(CN5CCC(C6CCN(c7ccc8c(c7)n(C)c(=O)n8C7CCC(=O)NC7=O)CC6)CC5)CC4)n3)cc2)cc1C#N` (stereo not drawn) [Compound 97 trifluoroacetate, 3-chloro-5-(2-(4-((2-(4-((1′-(1-(2,6-dioxopiperidin-3-yl)-3-methyl-2-oxo-2,3-dihydro-1H-benzo[d]imidazol-5-yl)-[4,4′-bipiperidin]-1-yl)methyl)piperidin-1-yl)pyrimidin-4-yl)methoxy)phenyl)propan-2-yl)-2-methoxybenzonitrile (Compound 97) trifluoroacetate], for which the values for the DC50 (in the series with full-length AR (AR-FL) (setting [6]); in series [3] (setting [6])) were 1.18 µM and 1.07 µM, respectively. Besides, the IC50 with 22RV1 cells [2] was found to be 0.421 µM. Also, the AUC(0-t) in series [4] came out at 658 ± 133 ng·h/mL.
Take `COc1c(Cl)cc(C(C)(C)c2ccc(OCc3ccnc(N4CCC(CN5CCC(C6CCN(c7ccc8c(c7)n(C)c(=O)n8C7CCC(=O)NC7=O)CC6)CC5)CC4)n3)cc2)cc1C#N` (stereo not drawn) [Compound 97, 3-chloro-5-(2-(4-((2-(4-((1′-(1-(2,6-dioxopiperidin-3-yl)-3-methyl-2-oxo-2,3-dihydro-1H-benzo[d]imidazol-5-yl)-[4,4′-bipiperidin]-1-yl)methyl)piperidin-1-yl)pyrimidin-4-yl)methoxy)phenyl)propan-2-yl)-2-methoxybenzonitrile]: the bioavailability in series [5] was > 15%.
Consider `COc1c(Cl)cc(C(C)(C)c2ccc(OCc3ccnc(N4CCC(CN5CCC(N6CCC(c7ccc8c(c7)n(C)c(=O)n8C7CCC(=O)NC7=O)CC6)CC5)CC4)n3)cc2)cc1C#N` (stereo not drawn) [Compound 116 trifluoroacetate, 3-chloro-5-(2-(4-((2-(4-((4-(1-(2,6-dioxopiperidin-3-yl)-3-methyl-2-oxo-2,3-dihydro-1H-benzo[d]imidazol-5-yl)-[1,4′-bipiperidin]-1′-yl)methyl)piperidin-1-yl)pyrimidin-4-yl)methoxy)phenyl)propan-2-yl)-2-methoxybenzonitrile], for which the “AR-FL Dmax % (maximum degradation rate)” value with full-length AR (AR-FL) was found to be 77%. The IC50 in the series with 22RV1 cells [2] is 0.821 µM. Further, the “AR-Vs Dmax % (maximum degradation rate)” value in series [3] is on record as 67%.

For orientation: AUC(0-t) means the area under the concentration-time curve up to a stated or last time point. Read a low AUC(0-t) as low exposure. What is called DC50 is the concentration giving 50% degradation. A low value points to a more potent degrader. Usually bioavailability stands for the share of a dose that reaches the circulation, judged against a reference dose that is usually intravenous. High values mean much systemic uptake, low ones little systemic uptake.

For the origin of these results see patent publication US20240383874A1, “BENZENE RING DERIVATIVE, AND COMPOSITION AND PHARMACEUTICAL USE THEREOF” (Xizang Haisco Pharmaceutical Co., Ltd., priority 2020, published 2024).
